From paper PMC9232612, “A phase 1b randomised controlled trial of a glucagon-like peptide-1 and glucagon receptor dual agonist IBI362 (LY3305677) in Chinese patients with type 2 diabetes” (Nature Communications, 2022)
“And” between values parts separate entries of the source, which are not always exact repeats. Equal entries are not always repeated.

Experiments:
Format in all cases: in vivo, human
[1] = system: Chinese patients with T2D; test: Treatment-emergent adverse events (MedDRA SOC/preferred term), 12-week once-weekly s.c. treatment plus 8-week safety follow-up, phase 1b; conditions: 1.5 mg once weekly, n=6
Description: The study included a 3-week screening period, a 12-week treatment period and an 8-week safety follow-up period. During the 12-week treatment period, IBI362 or placebo was subcutaneously administered once weekly with one of the three dose-escalation schedules: 1.0–2.0–3.0 mg for the 3.0 mg cohort, 1.5–3.0–4.5 mg for the 4.5 mg cohort and 2.0–4.0–6.0 mg for the 6.0 mg cohort (each dose level administered for 4 weeks). The 6.0 mg cohort started dosing after tolerability evaluation of 1.5 mg dosing in the 4.5 mg cohort. The internal unblinded safety monitoring group was responsible for the safety monitoring. Dulaglutide was subcutaneously administered once weekly at a fixed dose of 1.5 mg. Patients who were on metformin prior to the enrolment of this trial were required to continue their previous dose of metformin throughout the trial. Investigators and authorized study personnel in each centre recorded the study data into the electronic case report forms (eCRFs), which were reviewed and validated by clinical research associates. The data in the eCRFs were submitted to the electronic data capture database.
(§1) Primary outcomes of the study were the safety and tolerability of IBI362. Safety assessment included adverse events, physical examinations, laboratory tests (including lipase, amylase and calcitonin level measures), vital signs and 12-lead electrocardiogram. Adverse events were categorized according to the Medical Dictionary for Regulatory Activities system organ classes (SOCs) and preferred terms. Treatment-emergent adverse events (TEAEs) were monitored from the time of informed consent to the safety follow-up period. The severity of TEAEs (mild, moderate or severe) and the association between an event and the study drug were assessed by investigators based on pre-specified criteria.
Safety analyses were done in the safety population (defined as all patients who received at least one dose of the study treatment). Pharmacokinetic analyses were done in the pharmacokinetic population (defined as all patients who received at least one dose of IBI362 and had at least one valid plasma concentration assessment).

[2] = system: Chinese patients with T2D; test: Homeostatic model assessment of β-cell function (HOMA-β); conditions: 1.5 mg once weekly, n=6
Text: (§2) Exploratory outcomes included change from baseline in body weight, waist circumference, body-mass index (BMI) and change in homeostatic model assessment of β-cell function (HOMA-β) and insulin resistance (HOMA-IR).

[3] = system: Chinese patients with T2D; test: Lipids (total cholesterol, LDL cholesterol, triglycerides); conditions: Dulaglutide group; mean
Description: Fig. S8: Change from baseline in lipids levels at week 12.
Data are plotted as means +/- SD. IBI362 3.0 mg n = 7; IBI362 4.5 mg n = 5; IBI362 6.0 mg n = 8; Pooled placebo n = 10; Dulaglutide n = 6. CFB = change from baseline; LDL = low density lipoprotein; SD = standard deviation. Source data are provided as a Source Data file.
Total cholesterol LDL cholesterol Triglycerides
CFB in lipids at week 12 (mmol/L),
(1 picture or pasted object on this page, not shown here) […]
Table 4 Routine laboratory safety assessments […]
Lipids Total cholesterol (TC), triglyceride (TG), high-density lipoprotein cholesterol (HDL-C), and low-density lipoprotein cholesterol (LDL-C). […]

[4] = system: Chinese patients with T2D; test: Change from baseline in heart rate, standard 12-lead electrocardiogram; conditions: 1.5 mg once weekly
Text: as §1
CFB in heart rate (beats/min),
Fig. S1: Change from baseline in heart rate over time.
Data are from standard 12-lead electrocardiogram, measured at 1 hour before each dose in the morning from week 0 to week 11, and 168 hours after the last dose (week 12). Data are plotted as means +/- SD. CFB = change from baseline; SD = standard deviation.Source data are provided as […]
(1 picture or pasted object on this page, not shown here)

[5] = system: Chinese patients with T2D; test: Fasting plasma glucose (FPG); conditions: 1.5 mg once weekly, MMRM
Description: HbA1c (2200101, Bio-Rad, USA), blood glucose (05168791190, Roche Diagnostics, Germany), insulin (12017547122, Roche Diagnostics, Germany), C peptide (03184897190, Roche Diagnostics, Germany), total GLP-1 (GLP-1 [7–36] amide and its metabolite, GLP-1 [9–36] amide, 10-1278-01, Mercodia AB, Sweden) and OXM (AL-139, AnshLabs, USA) tests were performed according to the manufactures’ instruction manuals in a central laboratory (KingMed Diagnostics, Guangzhou, China). HbA1c was measured using a Bio-rad D-100 Haemoglobin Testing System (Bio-rad). Blood glucose was measured using a Roche Cobas c702 analyser (Roche Diagnostics). Insulin and C peptide were measured using a Roche […] analyser (Roche Diagnostics). GLP-1 and OXM were measured using a Tecan Infinite M Plex microplate reader (TECAN).
Standard non-compartmental pharmacokinetics methods were used to analyze IBI362 plasma concentration data using Pkanalix 2020R1 (Lixoft, Antony, France). Secondary efficacy outcomes included change from baseline to week 12 in HbA1c, fasting plasma glucose (FPG), fasting insulin levels, change from baseline to week 12 in post-mixed-meal tolerance test (post-MTT) glucose, insulin, C peptide, GLP-1 and OXM levels, as well as seven-point self-measured blood glucose (SMBG) profile.
(§3) The analyses for change from baseline in HbA1c, FPG, post-MTT glucose AUC0–4 h and body weight were performed using the mixed-effect model for repeated measures (MMRM) with least-squares means and standard error provided. The MMRM included the corresponding baseline value, treatment, visit and treatment-by-visit as fixed effects and patient as a random effect. Mean change or mean percent change from baseline were analysed using a restricted maximum likelihood (REML)‐based repeated measures approach in combination with the Newton Raphson Algorithm. The fix effect of visit was fitted as a repeated effect and an unstructured covariance matrix was used. In case of non-converge, matrix like Variance Components and Compound Symmetry will be tested in a subsequent order until model‐convergence is achieved. The Kenward-Roger degree of freedom was used in estimating fixed effects. No missing data imputation was conducted. For HbA1c, FPG and body weight, point estimate of treatment difference versus placebo and 90% CI were provided for each IBI362 dose group and the dulaglutide group, with nominal p values.

[6] = Body weight; conditions: 1.5 mg once weekly; for Percent change from baseline in body weight, LS mean / Percent change from baseline in body weight, LS mean (SE): n=6
Description: as §2, §3

Substance: Dulaglutide: open-label active reference, subcutaneously once weekly at a fixed dose of 1.5 mg [reference compound]
- Infections and infestations (SOC) [1]: 0 number of patients (%)
- Upper respiratory tract infection [1]: 0 number of patients (%)
- Urinary tract infection [1]: 0 number of patients (%)
- Change from baseline to week 12 in HOMA-β, mean [2]: 30.9%
- Change from baseline to week 12 in HOMA-β, individual ([2]; single patients): 31.2% and 37.1% and 18.9% and 5.2% and 22.2% and 70.7%
- Change from baseline to week 12 in LDL cholesterol [3]: -0.32 mmol/L
- Change from baseline to week 12 in total cholesterol [3]: -0.58 mmol/L
- Change from baseline to week 12 in triglycerides [3]: -0.58 mmol/L
- heart rate, mean change from baseline (bound) [4]: < 10 beats per minute
- Change from baseline in fasting plasma glucose, LS mean ([5]; week 4, n=6): -3.19 mmol/L
- Change from baseline in fasting plasma glucose, LS mean ([5]; week 8, n=6): -3.36 mmol/L
- Change from baseline in fasting plasma glucose, LS mean (SE) ([5]; week 12, n=6): -3.85 mmol/L
- Fasting plasma glucose: ETD versus placebo, LS mean (90% CI) ([5]; week 12): -1.32 mmol/L
- Percent change from baseline to week 12 in body weight, single patients ([6]; each line a single patient): 1.8% and -0.6% and 0.5% and 1.3% and -0.126% and -7.2%
- Percent change from baseline in body weight, LS mean ([6]; week 4, MMRM): -0.2%
- Percent change from baseline in body weight, LS mean ([6]; week 8, MMRM): -0.8%
- Percent change from baseline in body weight, LS mean (SE) ([6]; week 12, MMRM): −0.9 (1.4) % and -0.9%
- Percent change from baseline in body weight, LS mean (SE) ([6]; week 12, MMRM, listed as dulaglutide): −0.9%
- Body weight (percent CFB): ETD versus placebo, LS mean (90% CI) ([6]; week 12, MMRM): 0.2 ( −2.8, 3.1) %
